In patent US12145920B2, “Lanthionine c-like protein 2 ligands, cells prepared therewith, and therapies using same” (NImmune Biopharma, Inc., priority 2019, dated 2024):

Biological target: T1, LANCL2 protein (Homo sapiens, UniProt Q9NS86)
T1 construct: made in house; host or cells: Pichia pastoris
T1 sequence (Q9NS86 1-450): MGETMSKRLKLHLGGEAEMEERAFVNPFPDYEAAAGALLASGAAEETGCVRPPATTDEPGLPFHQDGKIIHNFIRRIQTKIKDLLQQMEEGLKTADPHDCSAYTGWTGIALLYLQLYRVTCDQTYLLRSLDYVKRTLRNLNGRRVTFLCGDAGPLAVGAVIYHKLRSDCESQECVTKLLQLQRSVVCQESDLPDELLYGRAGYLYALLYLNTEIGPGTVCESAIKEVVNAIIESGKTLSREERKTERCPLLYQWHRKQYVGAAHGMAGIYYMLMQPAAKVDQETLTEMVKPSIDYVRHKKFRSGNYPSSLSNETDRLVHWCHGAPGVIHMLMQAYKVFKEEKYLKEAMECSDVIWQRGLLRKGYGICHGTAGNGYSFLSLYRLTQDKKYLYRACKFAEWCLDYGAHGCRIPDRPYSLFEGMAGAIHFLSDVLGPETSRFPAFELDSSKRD
Assay: Surface plasmon resonance binding to LANCL2 (Biacore T200)
Settings: SPR, immobilized LANCL2, analyte 0-40 μM
Experimental: LANCL2 production and purification. LANCL2 was cloned into E. coli, amplified and transfected in Pichia pastoris. P. pastoris was plated onto adenine selective media. Stable transfected colonies were selected and grown within YPD broth at 30° C. for 24 hours, 240 RPM shaking. Starter culture was used to inoculate base media (1% yeast extract, 2% peptone, 1% sorbitol, 2% yeast nitrogen base) containing biotin and buffered with potassium phosphate. Inoculated base media was incubated for 48 hours at 30° C., 240 RPM. P. pastoris was then pelleted by centrifugation and resuspended in expression media (1% sorbitol, 2% yeast nitrogen base) containing biotin and buffered with potassium phosphate. Culture was induced daily for protein production through addition of methanol and incubated for a total of 4 days at 28° C., 240 RPM. After incubation, cells were pelleted by centrifugation and lysed by sonication. Recombinant LANCL2 protein was purified by fast protein liquid chromatography (AktaPrime) using immobilized metal affinity chromatography. Fractions of protein were eluted in 1 mL aliquots and evaluated for LANCL2 content.
Surface plasmon resonance. A Biacore T200 was used to evaluate binding to the LANCL2 protein. Protein was immobilized onto the CMS sensor chip. […] Based on the immobilized response values, theoretical Rmax values were calculated. […]

## O=C(CN1CCN(C(=O)c2cccc(-c3nc4ccccc4[nH]3)n2)CC1)c1ccccc1 [BT-63, 2-(4-(6-(1H-benzo[d]imidazol-2-yl)picolinoyl)piperazin-1-yl)-1-phenylethanone]
  Kd: 2.74 µM
